The results in this text go back to BindingDB's records for doi:10.1016/S0960-894X(01)80421-2 (1993).

This test addresses Chorismate synthase (Escherichia coli) (UniProt P12008). Kind of test: Compound was evaluated for the binding affinity towards Escherichia coli chorismate synthase.

Molecules are shown by their SMILES.

Broadly, the Kd is a measure of binding affinity in units of concentration.

Chain of Chorismate synthase (Escherichia coli) (P12008 whole entry, looked up): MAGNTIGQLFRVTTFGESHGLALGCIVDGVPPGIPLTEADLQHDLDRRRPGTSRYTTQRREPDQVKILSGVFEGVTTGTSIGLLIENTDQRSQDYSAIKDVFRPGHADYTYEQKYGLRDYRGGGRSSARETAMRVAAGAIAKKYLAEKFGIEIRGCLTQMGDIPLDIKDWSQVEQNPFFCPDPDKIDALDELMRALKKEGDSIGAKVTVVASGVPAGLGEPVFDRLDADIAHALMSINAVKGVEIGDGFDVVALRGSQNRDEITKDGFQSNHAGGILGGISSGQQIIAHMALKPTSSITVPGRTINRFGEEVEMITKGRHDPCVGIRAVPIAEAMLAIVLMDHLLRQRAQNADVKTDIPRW

In turn, `Cc1cc2nc3c(=O)[nH]c(=O)nc-3n(C[C@H](O)[C@H](O)[C@H](O)COP(=O)(O)O)c2cc1C` [E101a] had a Kd above 20 µM.
